The record followed here is patent publication US10159667B2, “Composition containing a DPP-IV inhibitor for preventing or treating renal diseases” (DONG-A ST CO., LTD, priority 2013, dated 2018).

Experiment [1] has as its system db/db mice. The experiment is described as follows: Weight, food intake, water intake, fasting blood glucose, urine output, HbA1c and blood pressure in db/db mice. In kind it is in vivo. As to the method: 6-week old mice were used. db/m mice were set as the non-diabetic control group (7 for each stage, n=28), and divided db/db mice into the diabetic group (7 for each stage, n=28) and DA1229 administration group (n=8). 0.3% (W/W, 300 mg/kg/day) of DA1229, a DPP-IV inhibitor, was mixed with feed and provided to the DA1229 administration group while only feed was provided to the diabetic group. Weight, food intake, water intake, fasting blood glucose, urine output, hemoglobin A1c value (HbA1c) and blood pressure (i.e. systolic blood pressure, SBP) of the non-diabetic control group (db/m control group) and the diabetic group (db/db) were measured at week 0, 4, 8 and 12 of administration; and that of the DA1229 administration group were measured at week 12. HbA1c was measured by using the DCA 2000+ (Bayer Healthcare, Wuppertal, Germany) Analyzer.

Experiment [2] relates to db/db mice. Nature of the experiment: Blood lipid concentration in db/db mice. The class given is in vivo. Particulars: 12th week of administration, FIG. 4. As to the method:
In diabetic patients, blood lipids are tend to be increased and lipids are tend to be deposited in liver (i.e. hepatic steatosis) due to failure of lipid metabolism. Following experiment has been conducted to confirm whether DA1229 improves lipid metabolism. […] Concentrations of lipids, that are total cholesterol, triglyceride, HDL-cholesterol and LDL-cholesterol, of plasma of the non-diabetic control group, the diabetic group and the DA1229 administration group were measured at 12th week of administration. Concentration of total cholesterol and triglyceride were measured by using a ELISA reader (Micro-Quant, Bio-Tek Instruments, Colmar, France) after using the GPO-Trinder kit (Sigma, St. Louis, Mo., USA); and HDL-cholesterol and LDL-cholesterol were measured by using a TBA-200FR NEO (Toshiba, Japan).

Experiment [3] concerns db/db mice. Nature of the experiment: Hepatic steatosis: H&E-stained liver sections. Particulars: 12th week of administration, FIG. 5. The class given is in vivo. The source says:
Liver tissues collected from the non-diabetic control group, the diabetic group and the DA1229 administration group were sectioned by a microtome and embedded in paraffin after alcohol dehydration at 12th week of administration. These sections were stained by Hematoxylin-eosin, and then lipid deposition was observed by using a microscope (STM6-LM Olympus NDT Inc, USA) (see FIG. 5).

The test system of experiment [4] is db/db mice. Nature of the experiment: Plasma creatinine by modified Jaffe method. The class given is in vivo.
Experiment [5] relates to db/db mice. The experiment is described as follows: Microalbuminuria: 24 h urinary albumin excretion by ELISA. In kind it is in vivo. Particulars: FIG. 6. The method, then:
When diabetes is progressed, phenomena of renal glomeruli destruction and protein (albumin) excretion incur, and microalbuminuria is directed to a case when the amount of the excretion is small. Microalbuminuria is one of the initial indices of renal diseases, and the gomeruli destruction becomes more severe as diabetes progresses. Accordingly the amount of protein excretion will increase. […] Microalbuminuria was observed by measuring the amount of urinary excretion of albumin during 24 hours in the non-diabetic control group, the diabetic group and the DA1229 administration group at week 0, 4, 8 and 12 of administration. The amount of albumin excretion was measured by using a ELISA reader (Micro-Quant, Bio-Tek Instruments, Colmar, France) after using the ELISA kit (Shibayagi, Shibukawa, Japan).

In experiment [6] the test system is db/db mice. Nature of the experiment: Histological evaluation of renal mesangial expansion (PAS staining). In kind it is in vivo. The note with it: 12th week of administration, FIG. 7. The text has this: Mesangial expansion incurs in kidney when renal destruction progresses in renal diseases. Therefore, glomerular mesangial expansion in the non-diabetic control group, the diabetic group and the DA1229 administration group was observed. […] Renal glomerular tissues were collected and sectioned by a microtome and embedded in paraffin after alcohol dehydration. The sections were stained by using PAS (periodic acid-Schiff); observed by using a microscope (STM6-LM Olympus NDT Inc, USA) (see FIG. 7B); and scored by a pathologist (see FIG. 7A.)

For experiment [7], the system named is db/db mice. Nature of the experiment: Renal fibrosis: immunohistochemistry of TGF β1, Type IV collagen and PAI-1. The class given is in vivo. The note with it: 12th week. The source says: Renal glomerular tissues were collected and sectioned by a microtome and embedded in paraffin after alcohol dehydration. The sections were stained via immunohistochemistry; each of deposited TGF β1, Type IV collagen and PAI-1 in kidney was observed by using a microscope (STM6-LM Olympus NDT Inc, USA) (see FIG. 8); and degree and range of the staining were scored by a pathologist (see FIG. 9).

Experiment [8] relates to db/db mice. Nature of the experiment: Renal lipid metabolism: mRNA expression of ABCA1 and HMG-CoA reductase. The class given is in vivo. Particulars: 12th week, FIGS. 11 and 12.
Experiment [9] concerns db/db mice. Nature of the experiment: Urinary nephrin excretion by EIA, normalized by creatinine. The class given is in vivo. The note with it: FIG. 13. The text has this:
Nephrin is a protein expressed on cell membrane of podocyte which forms glomerular filtration membrane. Nephrin forms a filtration barrier by binding to adjacent podocyte. When proteinuria incurs due to glomerular damage, nephrin barrier is damaged because nephrin expression in podocyte decreases, and accordingly, urinary excretion of nephrin increases. Therefore, urinary excretion of nephrin and nephrin expression in kidney in the non-diabetic control group, the diabetic group and the DA1229 administration group were observed. […] It was then normalized by creatinine excretion, which is proportional to a volume of urination (measured by the modified Jaffe method) and shown in the left-hand side graph in FIG. 13.

Experiment [10] relates to db/db mice. Nature of the experiment: Renal nephrin expression by immunostaining. In kind it is in vivo. Particulars: FIG. 13. The source says:
Nephrin is a protein expressed on cell membrane of podocyte which forms glomerular filtration membrane. Nephrin forms a filtration barrier by binding to adjacent podocyte. When proteinuria incurs due to glomerular damage, nephrin barrier is damaged because nephrin expression in podocyte decreases, and accordingly, urinary excretion of nephrin increases. Therefore, urinary excretion of nephrin and nephrin expression in kidney in the non-diabetic control group, the diabetic group and the DA1229 administration group were observed. […] In addition, kidneys were isolated from each group; renal tissues were separated, immunostained with nephrin-specific antibody, and observed by using a microscope. Result is shown in right-hand side of FIG. 13. It is shown that observed nephrin was few in the diabetic group compared to the non-diabetic control group, but much in the DA1229 administration group.

Experiment [11] has as its system non-diabetic renal disease mouse model. Nature of the experiment: Microalbuminuria and nephrin excretion in adriamycin (ADX) non-diabetic renal disease mouse model. The note with it: for urinary excretion of albumin / urinary excretion of nephrin: ADX 13 mg/kg i.v. mice, vs control. The class given is in vivo, mice. The method, then: Non-diabetic renal diseases occurs via induction of glomerular podocyte damage when injecting adriamycin (hereinafter, ADX) that is an anti-cancer agent. Thirty mice at the age of 6 weeks were divided into 3 groups (n=10/group) after single intravenous injection of 13 mg/kg of ADX. For the first group, the administration of DA1229 was initiated immediately and maintained while renal disease incurred and developed. For the second group, administration of DA1229 was performed 3 weeks after single ADX injection, for the purpose of administering DA1229 after renal disease was progressed to some degree. The third group was set as a control group without any additional action. DA1229 was administered as a mixture with diet at 0.3% (W/W, 300 mg/kg/day) to the first and second groups. Only feed was provided to the control group. Microalbuminuria and nephrin excretion of each group were measured at 5th week of administration.

In another experiment the test system is podocytes. Nature of the experiment: Nephrin expression in podocytes under glucose and angiotensin II stimuli (western blot). The class given is cell-based. Particulars: 10 nM, 72 hours, 30 mM glucose and 100 nM angiotensin II, FIG. 18. The method, then:
Effects of DA1229, linagliptin, saxagliptin and sitagliptin on nephrin expression under stimuli of glucose and angiotensin II that are same to the stimulation occurring in diabetes were observed below.
Podocytes were cultured for 72 hours in media containing 30 mM of glucose, 100 nM of angiotensin II; and any one of 10 nM of DA1229, 10 nM of linagliptin, 1 nM of saxagliptin and 10 nM of sitagliptin. After that, the media were removed; cells were lysed; and changes of intracellularly expressed nephrin were measured through western blot by using polyclonal antibody (Santa Crúz, SC-19000.)

Experiment [12] has as its system db/db mice. The experiment is described as follows: Renal fibrosis: mRNA expression of TGF β1, Type IV collagen and PAI-1 by real-time PCR. The note with it: 12th week, relative to β-actin, FIG. 10.
[13] abbreviates: DA1229 0.3% W/W in feed (300 mg/kg/day), wk 12, mean ± SEM.
Where [14] appears, read: DA1229 administered for 12 weeks.

Marks after values point to notes of the source that are not given here.

Take `CC(C)(C)OC[C@@H]1C(=O)NCCN1C(=O)C[C@H](N)Cc1cc(F)c(F)cc1F` [DA1229, (R)-4-{(R)-3-amino-4-(2,4,5-trifluorophenyl)butanoyl}-3-(t-butoxymethyl)piperazin-2-one]: in the experiment with db/db mice [1] (setting [13]), the “Daily Water Intake” value is 8.6 ± 0.4**^,# g, the Fasting Blood Glucose is 466 ± 66 mg/dL, the HbAlc was found to be 8.58 ± 0.79 % and the “Urine Output” value is 1.07 ± 0.29 mL/day. Also, in the experiment with db/db mice [1] (setting [14]), the “fasting blood glucose compared to the diabetic group” value was “markedly decreased”, the “urine output compared to the diabetic group” value is “no significant differences” and the “water intake compared to the diabetic group” value is on record as “markedly decreased”. Besides, in the experiment on db/db mice [2], the “plasma LDL-cholesterol concentration” value is “restored to the level of the non-diabetic control group”, the “plasma total cholesterol concentration” value is recorded as “restored to the level of the non-diabetic control group” and the plasma triglyceride concentration result is on record as “restored to the level of the non-diabetic control group”. Also, the “lipid deposition of liver tissues” value in the experiment on db/db mice [3] was “restored to the level of the non-diabetic control group”. Moreover, the “Plasma Creatinine” value in the experiment with db/db mice [4] (DA1229 300 mg/kg/day in feed, wk 12, ± SEM) is 29.0 ± 2.0 µmol/L. For the same compound, the “plasma creatinine compared to the diabetic group” value in the experiment with db/db mice [4] (wk 12) was “markedly decreased”. The “microalbuminuria until 4th week” value in the experiment with db/db mice [5] is given as “not observed”. Also, in the experiment with db/db mice [5] (vs diabetic group), the “amount of urinary excretion of albumin after 4th week” value is “much smaller than that of the diabetic group”. Besides, the glomerular mesangial expansion result in the experiment on db/db mice [6] is listed as “improved to a level close to the non-diabetic control group”. Also, the “TGF β1 deposited in kidney (immunohistochemistry)” value in the experiment on db/db mice [7] (FIGS. 8A and 9) was “markedly decreased”. The “Type IV collagen deposited in kidney (immunohistochemistry)” value with db/db mice [7] (FIGS. 8B and 9) was “decreased to the level of the non-diabetic control group”. Besides, the “PAI-1 deposited in kidney (immunohistochemistry)” value with db/db mice [7] (FIGS. 8C and 9) is reported as “decreased to the level of the non-diabetic control group”. Besides, in the experiment on db/db mice [8], the “renal mRNA expression of ABCA1” value is on record as “markedly increased” and the “renal mRNA expression of HMG-CoA reductase” value is on record as “decreased to the level of the non-diabetic control group”. Also, in the experiment with db/db mice [9], the “content of nephrin in urine” value was “markedly decreased”. Further, the “nephrin observed in renal tissue (immunostaining)” value in the experiment on db/db mice [10] was “much”. For the same compound, in experiment [11] (first group: DA1229 300 mg/kg/day started with induction of renal disease, FIG. 14A), the “urinary excretion of albumin” value was “significantly decreased”. Further, the “urinary excretion of nephrin” value in experiment [11] (first group: DA1229 300 mg/kg/day started with induction of renal disease, FIG. 14B) is on record as “significantly decreased”. The “urinary excretion of albumin” value in experiment [11] (second group: DA1229 300 mg/kg/day started 3 weeks after ADX, FIG. 15A) is recorded as “significantly decreased”. For the same compound, in [11] (second group: DA1229 300 mg/kg/day started 3 weeks after ADX, FIG. 15B), the “urinary excretion of nephrin” value is listed as “significantly decreased”. The “effect of decreasing albumin excretion over time” value in experiment [11] (ADX mice, second group, FIG. 15) is on record as “became more significant as time passed”. In addition, the “nephrin expression in podocytes” value in the experiment on podocytes is reported as “maintained equally to the control group”. Moreover, in the experiment with db/db mice [12], the “renal mRNA expression of PAI-1” value is listed as “markedly decreased”, the “renal mRNA expression of TGF β1” value is given as “markedly decreased” and the “renal mRNA expression of Type IV collagen” value is reported as “markedly decreased”.

As for `N[C@@H](CC(=O)N1CCn2c(nnc2C(F)(F)F)C1)Cc1cc(F)c(F)cc1F` [sitagliptin, reference compound], in the experiment with podocytes, the “nephrin expression in podocytes” value is “almost no difference compared to the group treated only with glucose and angiotensin II”.
